Experimental data as given in the NIST ThermoML archive (doi:10.1016/j.jct.2012.11.014).

Experiment: xn = mol fraction of the nth substance listed
Conditions: 101 kPa, Liquid; for speed of sound: Frequency=2 MHz, Linear variable-path acoustic interferometer; for viscosity: Oscillating disk viscometry; for mass density: Vibrating tube method

CC(=O)[O-].C[NH+](C)C [trimethylammonium acetate] + C[S+](C)[O-]
Conditions | mass density [kg/m3] | speed of sound [m/s] | viscosity [mPa·s]
298.15 K, x1 = 0.0159 | 1094.86 | 1497 | 2.03
298.15 K, x1 = 0.0656 | 1093.33 | 1501 | 2.16
298.15 K, x1 = 0.1182 | 1091.46 | 1505 | 2.29
298.15 K, x1 = 0.1693 | 1089.27 | 1509 | 2.41
298.15 K, x1 = 0.2333 | 1086.77 | 1513 | 2.55
298.15 K, x1 = 0.2857 | 1084.45 | 1517 | 2.66
298.15 K, x1 = 0.3408 | 1081.92 | 1521 | 2.77
298.15 K, x1 = 0.3877 | 1079.63 | 1524 | 2.84
298.15 K, x1 = 0.4358 | 1077.39 | 1527 | 2.91
298.15 K, x1 = 0.5129 | 1073.63 | 1532 | 3
298.15 K, x1 = 0.5506 | 1071.66 | 1534 | 3.03
298.15 K, x1 = 0.5959 | 1069.68 | 1536 | 3.05
298.15 K, x1 = 0.6852 | 1065.62 | 1540 | 3.08
298.15 K, x1 = 0.7487 | 1062.84 | 1542 | 3.06
298.15 K, x1 = 0.8156 | 1060.15 | 1543 | 3.01
298.15 K, x1 = 0.8651 | 1058.27 | 1544 | 2.97
298.15 K, x1 = 0.9231 | 1056.26 | 1544 | 2.89
298.15 K, x1 = 0.961 | 1055.02 | 1544 | 2.84
298.15 K, x1 = 1 | 1053.85 | 1544 | 2.76
303.15 K, x1 = 0.0159 | 1092.06 | 1473 | 1.85
303.15 K, x1 = 0.0656 | 1090.58 | 1477 | 1.99
303.15 K, x1 = 0.1182 | 1088.73 | 1480 | 2.12
303.15 K, x1 = 0.1693 | 1086.54 | 1484 | 2.23
303.15 K, x1 = 0.2333 | 1083.95 | 1488 | 2.37
303.15 K, x1 = 0.2857 | 1081.41 | 1492 | 2.47
303.15 K, x1 = 0.3408 | 1078.78 | 1495 | 2.56
303.15 K, x1 = 0.3877 | 1076.45 | 1498 | 2.63
303.15 K, x1 = 0.4358 | 1074.03 | 1501 | 2.7
303.15 K, x1 = 0.5129 | 1070.25 | 1505 | 2.78
303.15 K, x1 = 0.5506 | 1068.52 | 1507 | 2.81
303.15 K, x1 = 0.5959 | 1066.19 | 1509 | 2.83
303.15 K, x1 = 0.6852 | 1062.02 | 1512 | 2.82
303.15 K, x1 = 0.7487 | 1059.21 | 1513 | 2.8
303.15 K, x1 = 0.8156 | 1056.44 | 1514 | 2.75
303.15 K, x1 = 0.8651 | 1054.43 | 1515 | 2.65
303.15 K, x1 = 0.9231 | 1052.36 | 1515 | 2.55
303.15 K, x1 = 0.961 | 1051.09 | 1515 | 2.48
303.15 K, x1 = 1 | 1049.87 | 1514 | 2.37
308.15 K, x1 = 0.0159 | 1085.87 | 1461 | 1.71
308.15 K, x1 = 0.0656 | 1084.72 | 1465 | 1.84
308.15 K, x1 = 0.1182 | 1083.28 | 1469 | 1.96
308.15 K, x1 = 0.1693 | 1081.2 | 1473 | 2.07
308.15 K, x1 = 0.2333 | 1078.93 | 1479 | 2.2
308.15 K, x1 = 0.2857 | 1076.51 | 1483 | 2.29
308.15 K, x1 = 0.3408 | 1073.96 | 1487 | 2.39
308.15 K, x1 = 0.3877 | 1071.75 | 1491 | 2.45
308.15 K, x1 = 0.4358 | 1069.43 | 1494 | 2.51
308.15 K, x1 = 0.5129 | 1065.68 | 1499 | 2.57
308.15 K, x1 = 0.5506 | 1063.92 | 1501 | 2.59
308.15 K, x1 = 0.5959 | 1061.71 | 1504 | 2.6
308.15 K, x1 = 0.6852 | 1057.63 | 1507 | 2.59
308.15 K, x1 = 0.7487 | 1054.92 | 1509 | 2.55
308.15 K, x1 = 0.8156 | 1052.23 | 1511 | 2.49
308.15 K, x1 = 0.8651 | 1050.25 | 1511 | 2.39
308.15 K, x1 = 0.9231 | 1048.26 | 1511 | 2.27
308.15 K, x1 = 0.961 | 1046.98 | 1510 | 2.19
308.15 K, x1 = 1 | 1045.81 | 1508 | 2.06
313.15 K, x1 = 0.0159 | 1081.32 | 1443 | 1.61
313.15 K, x1 = 0.0656 | 1080.52 | 1447 | 1.73
313.15 K, x1 = 0.1182 | 1079.21 | 1452 | 1.85
313.15 K, x1 = 0.1693 | 1077.1 | 1457 | 1.96
313.15 K, x1 = 0.2333 | 1074.98 | 1463 | 2.08
313.15 K, x1 = 0.2857 | 1072.77 | 1468 | 2.16
313.15 K, x1 = 0.3408 | 1070.09 | 1472 | 2.26
313.15 K, x1 = 0.3877 | 1067.96 | 1476 | 2.31
313.15 K, x1 = 0.4358 | 1065.48 | 1481 | 2.36
313.15 K, x1 = 0.5129 | 1061.68 | 1486 | 2.41
313.15 K, x1 = 0.5506 | 1060.02 | 1489 | 2.43
313.15 K, x1 = 0.5959 | 1057.67 | 1491 | 2.44
313.15 K, x1 = 0.6852 | 1053.56 | 1495 | 2.41
313.15 K, x1 = 0.7487 | 1050.78 | 1497 | 2.37
313.15 K, x1 = 0.8156 | 1048.06 | 1497 | 2.29
313.15 K, x1 = 0.8651 | 1045.97 | 1496 | 2.18
313.15 K, x1 = 0.9231 | 1044.14 | 1495 | 2.06
313.15 K, x1 = 0.961 | 1042.88 | 1493 | 1.97
313.15 K, x1 = 1 | 1041.7 | 1490 | 1.83
